The numbers were not newly measured in patent publication US11033592B2, “Composition for the prevention and/or treatment of cardiovascular diseases” (priority 2016, dated 2021), which cites them from elsewhere.

The data set relates to first occurrence of cardiovascular events. Conditions: CRESTOR 20 mg versus placebo, P<0.00001.

Take `CC(C)c1nc(N(C)S(C)(=O)=O)nc(-c2ccc(F)cc2)c1/C=C/[C@@H](O)C[C@@H](O)CC(=O)O` [CRESTOR, rosuvastatin]: the “relative reduction in risk of a major cardiovascular event” value was 44%.
